Measurements: patent publication US20060069132A1, “Azolecarboxamide herbicides” (priority 2004, published 2006)

Assays:
barnyardgrass [1] = assay: Test B pre-/postemergence herbicide test; assay type: in vivo, Echinochloa crus-galli; settings: for Plant response rating (0 to 100 scale), Barnyardgrass: 0 is no effect, 100 is complete control, preemergence; for Barnyardgrass plant response rating: scale 0 (no effect) to 100 (complete control)
In short: (§1)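 Species tested were Echinochloa crus-galli, Ipomoea coccinea, Xanthium strumarium and Oryza sativa, treated both before emergence and at the 1- to 4-leaf stage; rice and barnyardgrass were also tested under flooding at 2 leaves. Greenhouse incubation lasted 13–15 days before visual 0–100 scoring.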

Surinam grass = assay: Test B pre-/postemergence herbicide test; assay type: in vivo, Urochloa decumbens; settings: for Plant response rating (0 to 100 scale), Surinam Grass: 0 is no effect, 100 is complete control, preemergence
In short: (§2)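 Plants compared with untreated controls 13–15 days post-treatment and given a visual 0–100 injury score. Applications: preemergence to seeds; postemergence at 1- to 4-leaf (2–18 cm); paddy species flooded, 2-leaf stage. Vehicle non-phytotoxic, surfactant included.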

cocklebur = assay: Test B pre-/postemergence herbicide test; assay type: in vivo, Xanthium strumarium; settings: for Plant response rating (0 to 100 scale), Cocklebur: 0 is no effect, 100 is complete control, preemergence
In short: as §1

corn = assay: Test B pre-/postemergence herbicide test; assay type: in vivo, Zea mays; settings: for Plant response rating (0 to 100 scale), Corn: 0 is no effect, 100 is complete control, preemergence
In short: as §2

large crabgrass = assay: Test B pre-/postemergence herbicide test; assay type: in vivo, Digitaria sanguinalis; settings: for Plant response rating (0 to 100 scale), Crabgrass, Large: 0 is no effect, 100 is complete control, preemergence
In short: as §2

giant foxtail = assay: Test B pre-/postemergence herbicide test; assay type: in vivo, Setaria faberi; settings: for Plant response rating (0 to 100 scale), Foxtail, Giant: 0 is no effect, 100 is complete control, preemergence
In short: as §2

lambsquarters = assay: Test B pre-/postemergence herbicide test; assay type: in vivo, Chenopodium album; settings: for Plant response rating (0 to 100 scale), Lambsquarters: 0 is no effect, 100 is complete control, preemergence
In short: as §2

morningglory = assay: Test B pre-/postemergence herbicide test; assay type: in vivo, Ipomoea coccinea; settings: for Plant response rating (0 to 100 scale), Morningglory: 0 is no effect, 100 is complete control, preemergence
In short: as §1

pigweed = assay: Test B pre-/postemergence herbicide test; assay type: in vivo, Amaranthus retroflexus; settings: for Plant response rating (0 to 100 scale), Pigweed: 0 is no effect, 100 is complete control, preemergence
In short: as §2

velvetleaf = assay: Test B pre-/postemergence herbicide test; assay type: in vivo, Abutilon theophrasti; settings: for Plant response rating (0 to 100 scale), Velvetleaf: 0 is no effect, 100 is complete control, preemergence
In short: as §2

blackgrass = assay: Test B postemergence herbicide test; assay type: in vivo, Alopecurus myosuroides
In short: (§3)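 Plants grow to 1- to 4-leaf stage (2–18 cm) for postemergence spraying, or to 2-leaf stage for the paddy test. Formulated compound is applied. Greenhouse holding lasts 13–15 days. Response is scored visually relative to controls, 0 no effect to 100 complete control; a dash means no result.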

wheat = assay: Test B postemergence herbicide test; assay type: in vivo, Triticum aestivum; parameters: key to Wheat plant response rating: 0 = no effect, 100 = complete control
In short: as §3

wild oat = assay: Test B postemergence herbicide test; assay type: in vivo, Avena fatua
In short: as §3

rice = assay: Test B flooded paddy test; assay type: in vivo, Oryza sativa; settings: 1000 g ai/ha, scale 0 to 100 (0 no effect, 100 complete control)
In short: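 Formulated test chemicals went onto postemergence plants measuring 2 to 18 cm, at one to four leaves. For the paddy assay, species had reached two leaves. Scoring took place 13–15 days later by eye, relative to untreated plants, using 0 for no effect up to 100 for full control.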

[2] = tested on: small flower umbrella sedge; assay: Test B flooded paddy test; assay type: in vivo, Cyperus difformis; settings: 1000 g ai/ha, scale 0 to 100 (0 no effect, 100 complete control)
In short: as §3

ducksalad = assay: Test B flooded paddy test; assay type: in vivo, Heteranthera limosa; settings: 1000 g ai/ha, scale 0 to 100 (0 no effect, 100 complete control)
In short: as §3

barnyardgrass [3] = assay: Test B flooded paddy test; assay type: in vivo, Echinochloa crus-galli; settings: 1000 g ai/ha, scale 0 to 100 (0 no effect, 100 complete control)
In short: as §3

[4] = 125 g ai/ha, visual rating, scale 0 (no effect) to 100 (complete control), postemergence
[5] = Postemergence, 500 g ai/ha, scale 0 (no effect) to 100 (complete control)
[6] = 500 g ai/ha, scale 0 to 100, 0 no effect, 100 complete control, preemergence
[7] = postemergence, 125 g ai/ha, scale 0 to 100

CCN(C)C(=O)c1ccc(F)c(NC(=O)c2nn(C(C)C)nc2C)c1 [Compound 403]
Plant response rating (0 to 100 scale), Barnyardgrass (barnyardgrass [1]; 125 g ai/ha): 0 | Barnyardgrass plant response rating (barnyardgrass [1]; 125 g ai/ha, visual rating, postemergence): 0 | Barnyardgrass plant response rating (barnyardgrass [1]; Postemergence, 500 g ai/ha): 0 | Plant response rating (0 to 100 scale), Surinam Grass (Surinam grass; 125 g ai/ha): 0 | Surinam Grass plant response rating (Surinam grass; [4]): 0 | Surinam Grass plant response rating (Surinam grass; [5]): 10 | Plant response rating (0 to 100 scale), Cocklebur (cocklebur; 125 g ai/ha): 0 | Cocklebur plant response rating (cocklebur; [4]): 0 | Cocklebur plant response rating (cocklebur; [5]): 0 | Plant response rating (0 to 100 scale), Corn (corn; 125 g ai/ha): 0 | Corn plant response rating (corn; [4]): 0 | Corn plant response rating (corn; [5]): 0 | Plant response rating (0 to 100 scale), Crabgrass, Large (large crabgrass; 125 g ai/ha): 0 | Crabgrass, Large plant response rating (large crabgrass; [4]): 0 | Crabgrass, Large plant response rating (large crabgrass; [5]): 0 | Plant response rating (0 to 100 scale), Foxtail, Giant (giant foxtail; 125 g ai/ha): 0 | Foxtail, Giant plant response rating (giant foxtail; [4]): 0 | Foxtail, Giant plant response rating (giant foxtail; [5]): 0 | Plant response rating (0 to 100 scale), Lambsquarters (lambsquarters; 125 g ai/ha): 0 | Lambsquarters plant response rating (lambsquarters; [4]): 0 | Lambsquarters plant response rating (lambsquarters; [5]): 10 | Plant response rating (0 to 100 scale), Morningglory (morningglory; 125 g ai/ha): 0 | Morningglory plant response rating (morningglory; [4]): 0 | Morningglory plant response rating (morningglory; [5]): 0 | Plant response rating (0 to 100 scale), Pigweed (pigweed; 125 g ai/ha): 0 | Pigweed plant response rating (pigweed; [4]): 0 | Pigweed plant response rating (pigweed; [5]): 0 | Plant response rating (0 to 100 scale), Velvetleaf (velvetleaf; 125 g ai/ha): 0 | Velvetleaf plant response rating (velvetleaf; [4]): 0 | Velvetleaf plant response rating (velvetleaf; [5]): 10 | Blackgrass plant response rating (blackgrass; [4]): 0 | Blackgrass plant response rating (blackgrass; [5]): 0 | Wheat plant response rating (wheat; [4]): 0 | Wheat plant response rating (wheat; [6]): 0 | Wheat plant response rating (wheat; [5]): 0 | Oat, Wild plant response rating (wild oat; [4]): 0 | Oat, Wild plant response rating (wild oat; [5]): 0 | Rice plant response rating (rice): 0 | Sedge, Umbrella plant response rating [2]: 10 | Ducksalad plant response rating (ducksalad): 0 | Barnyardgrass plant response rating (barnyardgrass [3]): 0

CCOC(=O)c1cncc(NC(=O)c2nn(C(C)(C)C)nc2C)c1 [Compound 422]
Plant response rating (0 to 100 scale), Barnyardgrass (barnyardgrass [1]; 125 g ai/ha): 0 | Barnyardgrass plant response rating (barnyardgrass [1]; Postemergence, 125 g ai/ha): 0 | Barnyardgrass plant response rating (barnyardgrass [1]; Postemergence, 500 g ai/ha): 0 | Plant response rating (0 to 100 scale), Surinam Grass (Surinam grass; 125 g ai/ha): 0 | Surinam Grass plant response rating (Surinam grass; [5]): 0 | Surinam Grass plant response rating (Surinam grass; [7]): 0 | Plant response rating (0 to 100 scale), Cocklebur (cocklebur; 125 g ai/ha): 0 | Cocklebur plant response rating (cocklebur; [5]): 0 | Cocklebur plant response rating (cocklebur; [7]): 0 | Plant response rating (0 to 100 scale), Corn (corn; 125 g ai/ha): 0 | Corn plant response rating (corn; [5]): 0 | Corn plant response rating (corn; [7]): 0 | Plant response rating (0 to 100 scale), Crabgrass, Large (large crabgrass; 125 g ai/ha): 0 | Crabgrass, Large plant response rating (large crabgrass; [5]): 0 | Crabgrass, Large plant response rating (large crabgrass; [7]): 0 | Plant response rating (0 to 100 scale), Foxtail, Giant (giant foxtail; 125 g ai/ha): 0 | Foxtail, Giant plant response rating (giant foxtail; [5]): 0 | Foxtail, Giant plant response rating (giant foxtail; [7]): 0 | Plant response rating (0 to 100 scale), Lambsquarters (lambsquarters; 125 g ai/ha): 0 | Lambsquarters plant response rating (lambsquarters; [5]): 0 | Lambsquarters plant response rating (lambsquarters; [7]): 0 | Plant response rating (0 to 100 scale), Morningglory (morningglory; 125 g ai/ha): 0 | Morningglory plant response rating (morningglory; [5]): 0 | Morningglory plant response rating (morningglory; [7]): 0 | Plant response rating (0 to 100 scale), Pigweed (pigweed; 125 g ai/ha): 0 | Pigweed plant response rating (pigweed; [5]): 0 | Pigweed plant response rating (pigweed; [7]): 0 | Plant response rating (0 to 100 scale), Velvetleaf (velvetleaf; 125 g ai/ha): 0 | Velvetleaf plant response rating (velvetleaf; [5]): 0 | Velvetleaf plant response rating (velvetleaf; [7]): 0 | Blackgrass plant response rating (blackgrass; [5]): 20 | Blackgrass plant response rating (blackgrass; [7]): 20 | Wheat plant response rating (wheat; [6]): 0 | Wheat plant response rating (wheat; [5]): 0 | Wheat plant response rating (wheat; [7]): 0 | Oat, Wild plant response rating (wild oat; [5]): 0 | Oat, Wild plant response rating (wild oat; [7]): 0 | Rice plant response rating (rice): 30 | Sedge, Umbrella plant response rating [2]: 70 | Ducksalad plant response rating (ducksalad): 20 | Barnyardgrass plant response rating (barnyardgrass [3]): 30
